pIC50: −log10 of the molar value. “And” between values parts separate entries of the source, which are not always exact repeats. Identical values can stand only once. Like-named read-outs stand apart in the source and are kept apart here.
Columns and labels:
hHgs 1-390 protein [1] = target: T1, hHgs 1-390 protein (Homo sapiens, UniProt O14964)
hHgs 1-390 protein [2] = target: T1, hHgs 1-390 protein; assay: biochemical

T1 sequence (O14964 1-390): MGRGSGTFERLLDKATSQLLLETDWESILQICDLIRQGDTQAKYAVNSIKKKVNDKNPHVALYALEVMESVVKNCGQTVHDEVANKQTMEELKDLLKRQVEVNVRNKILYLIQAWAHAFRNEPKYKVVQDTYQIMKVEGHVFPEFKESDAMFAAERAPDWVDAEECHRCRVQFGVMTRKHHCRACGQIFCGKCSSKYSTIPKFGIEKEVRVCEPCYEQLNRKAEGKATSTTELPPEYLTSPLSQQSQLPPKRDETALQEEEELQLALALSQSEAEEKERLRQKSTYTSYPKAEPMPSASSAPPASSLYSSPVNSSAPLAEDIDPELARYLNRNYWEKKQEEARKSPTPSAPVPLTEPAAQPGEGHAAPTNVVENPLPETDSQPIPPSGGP

Compound | Polarization (hHgs 1-390 protein [1]; 0.00610352 uM) | Polarization (hHgs 1-390 protein [1]; 0.0244141 uM) | Polarization (hHgs 1-390 protein [1]; 0.0976562 uM) | Polarization (hHgs 1-390 protein [1]; 0.390625 uM) | Polarization (hHgs 1-390 protein [1]; 1.5625 uM) | Polarization (hHgs 1-390 protein [1]; 6.25 uM) | Polarization (hHgs 1-390 protein [1]; 25 uM) | cell viability, Figures S9A, B, D-F (17Cl-1 cells; concentration 0.01) | cell viability, Figures S9A, B, D-F (17Cl-1 cells; concentration 0.03) | cell viability, Figures S9A, B, D-F (17Cl-1 cells; concentration 0.1) | cell viability, Figures S9A, B, D-F (17Cl-1 cells; concentration 0.3) | cell viability, Figures S9A, B, D-F (17Cl-1 cells; concentration 1) | cell viability, Figures S9A, B, D-F (17Cl-1 cells; concentration 3) | cell viability, Figures S9A, B, D-F (17Cl-1 cells; concentration 10) | cell viability, Figures S9A, B, D-F (17Cl-1 cells; concentration 25) | viability of infected cells (rescue of cytopathic effect), Figures S9G-L (MHV; concentration 10) | viability of infected cells (rescue of cytopathic effect), Figures S9G-L (MHV; concentration 30) | viability of infected cells (rescue of cytopathic effect), Figures S9G-L (MHV; concentration 100) | viability of infected cells (rescue of cytopathic effect), Figures S9G-L (MHV; concentration 300) | viability of infected cells (rescue of cytopathic effect), Figures S9G-L (MHV; concentration 1000) | other results
CC1=NN(c2ccc(C)c(C)c2)C(=O)/C1=N\Nc1cccc(-c2cccc(C(=O)O)c2)c1O [Eltrombopag, eltrombopag] | 143 and 142 | 147 and 141 | 143 and 140 | 145 and 149 | 107 and 109 | 80 and 76 | 89 | 104.545 and 104.221 | 100.327 and 102.614 and 102.288 | 99.1416 and 102.682 and 102.039 | 104.867 and 102.544 and 103.872 | 103.708 and 104.035 | 104.491 and 102.191 and 102.848 | 96.1957 and 94.8913 and 95.2174 | 58.804 and 63.1229 and 62.4585 | 40.6593 and 41.7582 and 41.3919 | 46.1538 and 47.2527 and 46.5201 | 46.1538 and 47.619 and 44.6886 | 42.4908 and 43.956 and 41.7582 | 41.3919 and 43.5897 and 40.6593 | viability of infected cells (rescue of cytopathic effect), Figures S9G-L (MHV; concentration 3000): 40.293 and 41.7582; viability of infected cells (rescue of cytopathic effect), Figures S9G-L (MHV; concentration 10000): 45.0549 and 44.3223 and 43.5897; viability of infected cells (rescue of cytopathic effect), Figures S9G-L (MHV; concentration 25000): 23.7729 and 23.8095 and 24.0659; pIC50 (hHgs 1-390 protein [2]): 5.82
CCOc1ccc2nc3cc(N)ccc3c(N)c2c1 [Ethacridine lactate, ethacridine lactate] | 140 and 149 | 140 and 144 | 143 | 137 and 141 | 134 and 136 | 102 and 105 | 73 and 70 | 101.299 and 101.948 and 102.597 | 100.98 and 101.961 and 102.614 | 100.429 and 99.7854 and 102.039 | 100.553 and 101.217 | 103.053 and 102.399 and 103.381 | 103.176 and 101.862 and 103.834 | 96.1957 and 98.8043 | 30.7973 and 30.3654 and 31.5947 | 29.3773 and 29.6337 and 29.1575 | 34.9451 and 36.63 and 36.4103 | 33.0403 and 35.0549 and 36.2271 | 32.8571 and 32.6374 and 34.6886 | 32.4176 and 32.0513 and 35.0916 | Polarization (hHgs 1-390 protein [1]; 100 uM): 68 and 66; viability of infected cells (rescue of cytopathic effect), Figures S9G-L (MHV; concentration 3000): 33.0037 and 32.1612 and 34.9817; viability of infected cells (rescue of cytopathic effect), Figures S9G-L (MHV; concentration 10000): 41.7582 and 41.0256 and 40.6593; viability of infected cells (rescue of cytopathic effect), Figures S9G-L (MHV; concentration 25000): 8.462 and 8.5348 and 8.278; pIC50 (hHgs 1-390 protein [2]): 5.15

— publication PMC12948427 (The Journal of Clinical Investigation, 2025)
